Patent US5925332A, “Radioimaging and radiochemotherapy phenolic thioether amines and acyl derivatives thereof for use in diagnosing and treating pigmentation disorders” (The Governors of the University of Alberta, priority 1992, dated 1999)
≈ marks a conversion by molar mass, not a printed value. Entries after “also recorded” stand apart in the source; their conditions may differ.

Columns and labels:
[1] = Determination of NAP-TEA and N-Acetyl-4-S-CAP in plasma after i.p. injection; assay type: in vivo, C57BL/6J Black Mouse; details: NAP-TEA 300 mg/kg i.p., plasma at 5 and 20 minutes
Description: A C57BL/6J Black Mouse was injected at 300 mg/kg body weight by i.p. administration of NAP-TEA. 100 μl of plasma was extracted from the mouse after 5 minutes of injection and after 20 minutes of injection. The plasma samples were treated in accordance with the procedure of Example 2. The plasma samples were passed through a Sep-Pak C18 cartridge in either 5% methanol:water to produce eluent 1 or 50% methanol/water to produce eluent 2. Eluent 2 had the aqueous methanol removed therefrom to provide a residue. The residue was redissolved in methanol/0.1% acetic acid and water in a ratio of 50:50 and subjected to HPLC for both the 5 minute and 20 minute plasma samples. […] The concentration of N-Acetyl-4-S-CAP in the 5 minute extracted sample being considerably greater than in the 20 minute extracted sample to indicate that in vivo NAP-TEA is deacylated to N-Acetyl-4-S-CAP which in turn is then taken up by the mouse melanocytes.

HeLa = test: In vitro cytotoxicity, MTT assay, HeLa; assay type: cell-based; details: Homo sapiens, 120 h, 5 days
Description: (§1) MTT assay in accordance with the standard procedure
(§2) MTT solution (Sigma catalog No. M2128) was dissolved in PBS at 1 mg/ml and filtered to sterilize the solution. The solution was stored in the dark at 4° C. until used. The growing cells were harvested, counted and inoculated into 96 well microtiter plates (1-2×10^3 cells/well).After 24 h, drugs were applied to culture wells, and the cultures were incubated for 5 days at 37° C. At this time, 50 μl of MTT solution was added to microculture wells. After 4 h incubation at 37° C., supernatant was removed from each well. 150 μl of DMSO was added to solubilized the MTT-formazan product. After mixing gently, absorbance at 540 nm was measured with ELISA plate spectrophotometer.

SK-MEL-23 = test: In vitro cytotoxicity, MTT assay, SK-MEL-23; assay type: cell-based; details: 120 h; SK-MEL-23, MTT, 5 days
Description: as §1, §2

UT amelanotic melanoma = test: In vitro cytotoxicity, MTT assay, UT amelanotic melanoma; assay type: cell-based; details: 120 h, 5 days
Description: as §1, §2

mushroom tyrosinase = test: Utilization with mushroom tyrosinase (remaining compound by HPLC); assay type: biochemical; details: 11 units tyrosinase, pH 6.8, 37° C.
Description: A reaction mixture consisting of NAP-TEA (500 μmol) and of mushroom tyrosinase (11 units) in 1.0 ml of 0.05 M sodium phosphate buffer (pH 6.8) was incubated at 37° C. in a water bath. The reaction was stopped periodically by cooling with ice. Aliquots removed at set time intervals were rapidly cooled to 0° C. in an ice bath and the remaining NAP-TEA was measured using HPLC. HPLC instrument and conditions Water 600 E liquid chromatograph system Conditions: μBondapak C18, Radial-Pak Cartridge (Waters) Mobile phase; 70% MeOH/H2 O, 1 ml/min Detector; Waters Model 441 UV absorbance detector Detection; Wavelength 254 nm

melanoma = details: mice in vivo; cited from earlier work
monoamineoxidase (MAO) = details: cited from earlier work; for General (non-specific) cytotoxicity: via aldehyde metabolite formed by plasma MAO
tyrosinase = details: cited from earlier work
B16F10 melanoma [2] = test: In vivo covalent binding of (14C)-NACAP to tissues of melanoma-bearing mice; details: female C57BL/6J mice, single i.p. injection, 48 hr, mean + S.D. (n = 3)
Description: In vivo covalent binding of (^14 C)-N-acetyl-4-S-CAP was investigated in mice. Female C57BL/6J mice received a single intraperitoneal injection of 2.0 mmol/kg (^14 C)-N-acetyl-4-S-CAP compound. The animals were killed 48 hours later. The tissues were removed and the covalent binding was determined as follows.
Five different tissues were examined for covalent binding of radioactively labelled N-acetyl-4-S-CAP intermediate(s). The maximum binding of N-acetyl-4-S-CAP was detected in the s.c. melanoma tumor and melanoma colony-bearing lung tissues. […]
^a Female C57BL/6J mice received a single intraperitoneal injection o
2.0 nmol/kg (^14 C)NACAP. The animals were killed 48 hr later, the
tissues were removed, and the covalent binding was determined as describe
^b The data are presented as the means + S.D. (n = 3).

B16F10 melanoma [3] = test: In vivo biodistribution by whole-body autoradiography; set-up: species or system mouse
Description: 48 hours after injection the animal was killed, frozen and prepared for sectioning. The 20-μm sections were freeze-dried and exposed to x-ray film for whole-body autoradiography.
The s.c. melanoma tumor and the lung with melanoma colonies were the only organs displaying a significant accumulation of the radioactivity.

[4] = O-deacylation of NAP-TEA in mouse plasma in vitro; assay type: in vitro ADME; details: 10 μg in 100 μl mouse plasma, shaken one-half minute, HPLC
Description: NAP-TEA was introduced to mouse plasma to determine by in vitro experimentation the extent to which NAP-TEA is deacetylated to form N-Acetyl-4-S-CAP. The procedure was as follows. Into 100 μl of mouse plasma, 10 μg of NAP-TEA was introduced. The mixture was shook for one-half of a minute and then passed through a Sep-Pak C18 cartridge in either 7 ml of 5% methanol/water to form eluent 1 or in 4 ml of 50% methanol/water to form eluent 2. Both eluents 1 and eluents 2 were collected. Aqueous methanol was removed from eluent 2 to provide a residue which was subjected to HPLC under the following conditions. […] The residue was mixed with methanol:water at 50:50 with a flow rate through the radiograph at 1 ml/min. The detector was a Water Associates Model 441 with detection by ultraviolet at 250 nm.

[5] = test system: follicular melanocytes (black hair); test: Melanocytotoxicity in vivo (depigmentation of black hair); details: 300 mg/kg i.p. daily for 14 days, plucked C57BL/6J black mice
Description: Hairs were plucked manually from the back of 6-8 week old C57BL/6J black mice (4 mice). Starting on day 2, daily for 14 days NAP-TEA was injected i.p. The dose was 300 mg/kg body weight.

hair follicles = test: Depigmenting effect on newborn black mice; assay type: in vivo, C57BL/6J black mice; details: single i.p. dose 300 mg/kg, 3 day old mice
Description: Six newborn (3 day old) C57BL/6J black mice were injected i.p. with a single dose of 0.1 mL of NAP-TEA solution (300 mg/kg body weight).

functioning melanocytes = test: In vivo melanocytotoxicity in pig, topical application, Dopa-positive melanocyte count; set-up: species or system Yucatan pig; details: topical twice a day for 8 weeks
Description: Solutions of 15% NAP-TEA in DMSO(w/v) and of 15% NAP-TEA in 60% EtOH(w/v) were prepared for topical application to a Yucatan pig. NAP-TEA was applied to the back skin of the pig twice a day for 8 weeks. After 8 weeks, punch biopsy was performed from the application area and from normal skin. Specimens obtained were kept in 2N NaBr solution for 3 hours followed by separation of the epidermis from dermis. Specimens of epidermis were incubated for 3 hours in phosphate buffer (pH 7.4) containing L-Dopa. The specimens were fixed in 10% neutral formalin solution and then washed twice in PBS. Finally, the specimens were mounted in glycerol gel. The numbers of Dopa-positive melanocytes in 9 adjacent 1 mm^2 fields from each sample were counted.

[6] = set-up: species or system animals; details: in vivo
Description: Experimental tests on animals indicate per single dose toxicity levels in the range of 1,400 mg/kg of body weight for the preferred compound of formula (II), NAP-TEA.

melanoma tissue = test: Distribution of 4-S-CAP in radioimaging or radiochemotherapy; details: in vivo
Text: When the compounds of the formula (I) are used in radiochemotherapy they may be combined with suitable pharmaceutical excipients and carriers wherein the radioactive selected compounds are present in a biologically effective amount in the carriers. Suitable biologically, compatible carriers may be solutions when injected by either the IP or SC route. Suitable biologically, compatible carriers for injection include physiologically normal saline and other types of readily injectable solutions which are well understood by those skilled in the art and readily available. […] For purposes of injection, the concentration of the radiolabelled compound in the injectable solution is normally in the range of 200 to 1200 mg per kg of body weight where the preferred dosage is in the range of 300 mg to 500 mg per kg of body weight. In the following examples, further information is provided as to the amount of compounds injected for purposes of radioimaging.

epidermal melanocytes = details: topical application, cited from earlier work
follicular melanocytes = details: cited from earlier work

## CC(=O)NCCSc1ccc(O)cc1 [N-Acetyl-4-S-CAP, N-acetyl-4-S-cysteaminylphenol]
[1]
  Compound detected in plasma by HPLC after NAP-TEA injection: evidence of N-Acetyl-4-S-CAP
HeLa
  IC50: 75 µg/mL (≈ 355 µM)
SK-MEL-23
  IC50: 25 µg/mL (≈ 118 µM)
UT amelanotic melanoma
  IC50: 12 µg/mL (≈ 56.8 µM)
Mushroom tyrosinase
  Substrate of mushroom tyrosinase (concentration remaining in the reaction mixture): dropped off rapidly over 25 minutes to almost zero amount after 50 minutes
melanoma
  Antimelanoma effect (lifespan of melanoma-bearing mice, inhibition of melanoma growth): potent antimelanoma properties
Monoamineoxidase (MAO)
  General (non-specific) cytotoxicity: absence of such cytotoxicity
tyrosinase
  Substrate of tyrosinase: superior substrate

## CC(=O)NCCS[14c]1[14cH][14cH][14c](O)[14cH][14cH]1 [(14C)-NACAP, N-acetyl-4-S-cysteaminyl (U-^14 C) phenol]
B16F10 melanoma [2]
  Convalent Binding, B16F10 melanoma s.c. tumor: 0.521 + 0.076 nmol covalently bound/kg of protein
  Convalent Binding, kidney: 0.008 + 0.001 nmol covalently bound/kg of protein
  Convalent Binding, liver: 0.013 + 0.003 nmol covalently bound/kg of protein
  Convalent Binding, lungs with B16F10 melanoma colonies: 0.330 + 0.113 nmol covalently bound/kg of protein
  Convalent Binding, lungs without B16F10 melanoma colonies: 0.010 + 0.001 nmol covalently bound/kg of protein
B16F10 melanoma [3]; 48 hours after i.p. injection, mouse
  Radioactivity in normal organs by whole-body autoradiography: not detectable in any normal organs except the lumen of the large intestine
B16F10 melanoma [3]; mouse with s.c. B16F10 tumor and B16F10 lung colonies, single i.p. injection 5.0 μCi, 48 hours
  Radioactivity in melanoma-bearing organs by whole-body autoradiography: showed radioactivity in infected organs

## NC(CSc1ccc(O)cc1)C(=O)O (stereo not drawn) [Compound 4-S-CP, 4-S-cysteinylphenol]
melanoma
  Antimelanoma effect (lifespan of melanoma-bearing mice, inhibition of melanoma growth): some inhibition of melanoma growth

## COC(=O)C(N)CSc1ccc(O)cc1 (stereo not drawn) [methyl ester of 4-S-CP]
melanoma
  Antimelanoma effect (lifespan of melanoma-bearing mice, inhibition of melanoma growth): some inhibition of melanoma growth

## CC(=O)NCCSc1ccc(OC(C)=O)cc1 [NAP-TEA, N-{2-((4-Acetoxyphenyl)-thio)ethyl}acetamide]
[4]
  O-deacylation to N-Acetyl-4-S-CAP in mouse plasma: readily deacylated by the mouse plasma
[1]
  Compound detected in plasma by HPLC after NAP-TEA injection: no evidence of NAP-TEA
HeLa
  IC50: 77 µg/mL (≈ 304 µM)
SK-MEL-23
  IC50: 31 µg/mL (≈ 122 µM)
UT amelanotic melanoma
  IC50: 14 µg/mL (≈ 55.3 µM)
Mushroom tyrosinase
  Substrate of mushroom tyrosinase (concentration remaining in the reaction mixture): not a substrate of mushroom tyrosinase
[5]
  Depigmentation of replacement hair: mice were depigmented with the new replacement hair being almost pure white
Hair follicles
  Depigmentation of hair follicles in newborn mice: depigmented in all hair follicles with the growing hair being light grey
Functioning melanocytes; 15% NAP-TEA in 60% EtOH
  Number of functioning melanocytes (Average of 9 fields): 74 ± 25 /mm^2
Functioning melanocytes; 15% NAP-TEA in DMSO
  Number of functioning melanocytes (Average of 9 fields): 32 ± 14 /mm^2
[6]
  per single dose toxicity level: ~1,400 mg/kg of body weight

## NCCSc1ccc(O)cc1 [Compound 4-S-CAP, 4-S-cysteaminylphenol]
Melanoma tissue
  Tissue accumulation in radioimaging or radiochemotherapy: collects in the eye as well as in the melanoma tissue
melanoma
  Antimelanoma effect (lifespan of melanoma-bearing mice, inhibition of melanoma growth): potent agent in prolonging the lifespan of melanoma-bearing mice
Epidermal melanocytes; guinea pigs
  Inflammatory changes of the skin: prominent
Epidermal melanocytes
  Depigmentation of black guinea pig skin: demonstrated depigmenting properties
Follicular melanocytes; albino follicles
  Effect on albino follicles: no effect on the albino follicles
Follicular melanocytes; black follicles
  Cytotoxicity on black hair follicles: demonstrated cytotoxicity in the depigmentation of black hair follicles
Monoamineoxidase (MAO); plasma
  Substrate for monoamineoxidase (MAO): substrate for monoamineoxidase (MAO)
Monoamineoxidase (MAO)
  General (non-specific) cytotoxicity: high toxicity; also recorded: some general cytotoxicity
